Structures can show the parent of a compound that is named as a salt. Values belong to the molecule of their own block, whether it stands above or below them.
Legend:
[1] = compared with lyso 14:0, 16:0 and 18:0; cited from earlier work
[2] = Drug (paclitaxel) loading into NLPs, quantified by reverse phase HPLC after SEC purification; type: physicochemical; conditions: for amount of paclitaxel loaded into NLPs (mass of drug over total mass of particle components): NLPs prepared with the named lysophospholipid at 50 mol % content
Protocol: For NLP assemblies using DOPC as the membrane forming lipid with apoE422k, the total lipid-to-apoE422K molar ratio was 80:1. Briefly, lipids were either prepared or obtained in chloroform and aliquoted into glass vials. Chloroform was then removed using a stream of N2 under agitation to form a thin lipid film. Lipids were solubilized in PBS buffer (137 mM sodium chloride, 2.7 mM potassium chloride, 10 mM phosphate buffer, pH 7.4) using 30 mM sodium cholate. After addition of the apoE422k (150 μM in final assembly volume), samples were incubated at 23.8° C. for at least 2 hours.
Assemblies were dialyzed overnight against PBS to remove cholate. Samples were subsequently analyzed and purified by SEC (size exclusion chromatography) (Superdex 200, 10/300 GL column, GE Healthcare, Piscataway, N.J.) in PBS buffer (0.5 mL/min flow rate). The exclusion limit of the column was determined with Blue Dextran 2000. SEC fractions (500 μl) were collected every 60 s. SEC fractions containing homogeneous NLP populations were concentrated using 50 kDa MWCO spin concentrators (Sartorius). The apoE422k concentration was determined using NanoDrop (Thermo Scientific). The concentrated NLP samples were then stored at 4° C. until further use.
The solution was then spun down to remove any precipitate, and then the supernatant was purified by SEC (GE HiTrap desalting column) in PBS buffer (0.5 ml/min flow rate). The collected fractions containing NLP were then analyzed by reverse phase HPLC to quantify each component of the NLP.
The ability of the two NLP populations to accommodate the drug of interest, paclitaxel, was then assessed. Following addition of paclitaxel to the two solutions, the NLP solutions were re-purified to remove free paclitaxel. The solutions were then analyzed by reverse phase HPLC to assess the amount of paclitaxel that was incorporated into the particles.
Further experiments were carried out to assess the relationship between lysophospholipid content and paclitaxel loading. NLPs were prepared with initial lysophospholipid contents (lyso 14:0) between 0 and 70 mole percent (i.e. 0 mol %-70 mol %). After paclitaxel addition and subsequent purification, the composition of these particles was again analyzed using reverse phase HPLC.

[3] = pH 5, 7 or 9; cited from earlier work

Compound: CCCCCCCC/C=C\CCCCCCCC(=O)OC[C@@H](O)COP(=O)([O-])OCC[N+](C)(C)C [lyso 18:1, 1-(9Z-octadecenoyl)-sn-glycero-3-phosphocholine]
aqueous solubility / CMC (in words) [1]: lowest solubility | amount of paclitaxel loaded into NLPs (mass of drug over total mass of particle components) [2]: least amount

Compound: CCCCCCCCCCCCCC(=O)OC[C@@H](O)COP(=O)([O-])OCC[N+](C)(C)C [lyso 14:0, 1-tetradecanoyl-sn-glycero-3-phosphocholine]
amount of paclitaxel loaded into NLPs (mass of drug over total mass of particle components) [2]: over 20%

paclitaxel content in NLPs (mass of drug over total mass of particle components) ([2]; 10-20 mol % initial lysophospholipid (lyso 14:0)): approximately 5 % by mass | paclitaxel loading in NLPs (mass of drug over total mass of particle components) ([2]; 30-60 mol % initial lysophospholipid (lyso 14:0)): 10-20% | measured quantity of paclitaxel in NLPs ([2]; 30 mol % lysophospholipid group): about 0.23 micrograms | paclitaxel loading in NLPs (mass of drug over total mass of particle components) ([2]; 70 mol % initial lysophospholipid (lyso 14:0)): > 30 % by mass | measured quantity of paclitaxel in NLPs ([2]; 70 mol % lysophospholipid group): about 0.23 micrograms | paclitaxel accepted by NLPs from second SEC peak versus larger particles from peak 1 ([2]; NLPs with 40 mol % initial lysophospholipid (lyso 14:0), two SEC populations): substantially more | paclitaxel content in NLPs (mass of drug over total mass of particle components) ([2]; NLPs without lysophospholipids (0 mol % lyso 14:0), DOPC/apoE422k): 1-2 % by mass of the particle
Compound: CC(=O)O[C@H]1C(=O)[C@@]2(C)[C@H]([C@H](OC(=O)c3ccccc3)[C@]3(O)C[C@H](OC(=O)[C@H](O)[C@@H](NC(=O)c4ccccc4)c4ccccc4)C(C)=C1C3(C)C)[C@]1(OC(C)=O)CO[C@@H]1C[C@@H]2O [paclitaxel]
incorporation into NLP ([2]; when aided by lysophospholipid): capable of being incorporated into NLP to a useful mass percent

incorporation in NLPs ([2]; regardless of whether a lysophospholipid is used as part of the drug loading process): does not incorporate to a useful degree
Compound: COc1cccc2c1C(=O)c1c(O)c3c(c(O)c1C2=O)C[C@@](O)(C(=O)CO)C[C@@H]3O[C@H]1C[C@H](N)[C@H](O)[C@H](C)O1 [doxorubicin hydrochloride]
LogKow [3]: 3.5
